Test results as given in the NIST ThermoML archive (doi:10.1021/je400055v).

Conditions: Liquid, Vibrating tube method

Cc1ccccc1O [2-methylphenol]
Conditions | mass density [kg/m3]
313.2 K, 1022 kPa | 1027.5
313.2 K, 2031 kPa | 1028.1
313.2 K, 3017 kPa | 1028.7
313.2 K, 4012 kPa | 1029.2
313.2 K, 5018 kPa | 1029.8
313.2 K, 6010 kPa | 1030.4
313.2 K, 7005 kPa | 1030.9
313.2 K, 8006 kPa | 1031.5
313.2 K, 9004 kPa | 1032
313.2 K, 10005 kPa | 1032.6
323.16 K, 1013 kPa | 1018.7
323.16 K, 2039 kPa | 1019.3
323.16 K, 3007 kPa | 1019.9
323.16 K, 4009 kPa | 1020.5
323.16 K, 5005 kPa | 1021.1
323.16 K, 6004 kPa | 1021.7
323.16 K, 6999 kPa | 1022.2
323.16 K, 8008 kPa | 1022.8
323.16 K, 9002 kPa | 1023.4
323.16 K, 10005 kPa | 1024
333.1 K, 1010 kPa | 1009.9
333.1 K, 2033 kPa | 1010.5
333.1 K, 3009 kPa | 1011.1
333.1 K, 4014 kPa | 1011.8
333.1 K, 5004 kPa | 1012.4
333.1 K, 5998 kPa | 1013
333.1 K, 7000 kPa | 1013.6
333.1 K, 8009 kPa | 1014.2
333.1 K, 9004 kPa | 1014.8
333.1 K, 10010 kPa | 1015.4
343.06 K, 1023 kPa | 1000.8
343.06 K, 2024 kPa | 1001.6
343.06 K, 3015 kPa | 1002.2
343.06 K, 4003 kPa | 1002.9
343.06 K, 5009 kPa | 1003.6
343.06 K, 6005 kPa | 1004.2
343.06 K, 7008 kPa | 1004.8
343.06 K, 8003 kPa | 1005.5
343.06 K, 8999 kPa | 1006.1
343.06 K, 10004 kPa | 1006.7
352.99 K, 1043 kPa | 991.9
352.99 K, 2000 kPa | 992.6
352.99 K, 3034 kPa | 993.3
352.99 K, 4015 kPa | 994
352.99 K, 5033 kPa | 994.6
352.99 K, 6007 kPa | 995.3
352.99 K, 7016 kPa | 996
352.99 K, 8006 kPa | 996.7
352.99 K, 9015 kPa | 997.3
352.99 K, 10014 kPa | 998
